# From patent US4916149A, “Diuretic and saluretic 4-chloro-3-sulfamoylbenzoic acid hydrazides” (Chinoin Gyogyszer es Vegyeszeti Termekek Gyara Rt., priority 1987, dated 1990)
# “And” between values parts separate entries of the source, which are not always exact repeats. Identical values can stand only once. Like-named read-outs stand apart in the source and are kept apart here.
# How the values were obtained:
# [1] = Saluretic/diuretic screening in rats (method of Lipschitz as modified by Kagawa and Kahn); assay type: in vivo, male LATI CFY rats; conditions: for response vs control in vivo at 5 mg/kg: Rattus norvegicus; for response vs control in vivo at 5 mg/kg / Na/K ratio of the urine discharged: single oral dose (5 mg/kg oral screen dose), 24 hours; for Na/K ratio of the urine discharged: control 3.0
# Procedure: The compounds of the present invention were compared with Dihydrochlorothiazide and Furosemide in rats by administration of a 5 mg/kg oral screen dose.
# The screening tests were carried out on male LATI CFY rats having an average body-weight of 240 g. The animals were kept on standard rat food and starved for 16 hours before the experiment but they received water ad libitum. For evaluation of the diuretic effect, the method of Lipschitz as modified by Kagawa and Kahn [Arch. Int. Pharmacodyn. 137, 241 (1962)] was used.
# Effect of a single oral dose of the compounds according to the invention on water, sodium and potassium diuresis during 24 hours as percentage of the simultaneously measured control values as well as their effect on the Na/K ratio of the urine discharged
# [2] = Antihypertensive activity in spontaneously hypertensive (SH) rats, systolic blood pressure; assay type: in vivo, spontaneously hypertensive (SH) male Okamoto rats
# Procedure: […] A hypotension of 21.1% was induced by the compound of Example 1 by 12 hours after administration.
# These investigations were carried but in spontaneously hypertensive (SH) male Okamoto rats. At least one week before starting the experiment, the animals had individually been maintained in cages and received water and semisynthetic rat food ad libitum. In the same time of each day, the blood pressure of each animal was measured and gastric tubing was carried out while immobilizing the animals. Animals with a blood pressure below 170 Hgmm were excluded from the experiment. Based on the daily determined blood pressure values, the animals were divided to experimental groups having a nearly equal average blood pressure and deviation.
# At the beginning of the experiment, the animals were given 0.2 ml/100 g of a solution containing the test compound, and 1 ml/100 g of Furosemide solution, respectively. Animal groups treated with physiological saline solution and solvent, respectively were also investigated in each experiment.
# Before measuring the blood pressure, the animals were put into a light-insulated sound-proof chamber then immobilized. An inflatable rubber cuff was placed on their tail root (onto the same site in each case) which was connected with a manometer.
# The material and diameter of the tail cuff was standardized. The measurement was carried out according to the Riva-Rocci principle. For determining the systolic blood pressure, the palpitation method was used. The heart rate was evaluated by a piezoelektric crystal put onto the rubber ring. The blood pressure measurement of each animal was started by 2 minutes following the immobilization, repeated in every 30 seconds and usually, the values several times repeatedly observed were accepted.
# Effect of a single oral dose of the compound of Example 1 or Furosemide, respectively on the systolic blood pressure of SH rats
# [3] = Glucose tolerance, serum uric acid and cholesterol; assay type: in vivo
# [4] = Saluretic effect in dogs (urine volume, Na and K, 0-7 and 7-24 hours); assay type: in vivo, perineotomized female dogs
# Procedure: The compound described in Example 1 was studied also on perineotomized female dogs. […] For adaptation, starting from the 4th week following the operation, the urinary bladder of the animals was evacuated by a catheter or treated with saline via a gastric tube. During the experiment, the dogs were kept on a standard food and they received water ad libitum. On the days of the experiements, the dogs were fasted and received only 20 ml/kg of water. Sodium in an 7.7 mmol/kg and potassium in an amount of 6.02 mmol/kg were introduced with the food.
# On the day of the experiment, the bladder of the animals was evacuated and a blood sample was taken from the leg vein, then a solution of the diuretic and solvent to the controls, respectively were administered in a dose of 10 ml/kg via a gastric tube. The animals were placed separately in metabolic cages. After 7 and 24 hours, respectively the bladder of the animals was catheterized and the urine was collected by washing the metabolic cage. After 24 hours following the catheterization, a blood sample was taken again.
# In addition to the discharged volume, the Na^+ and K^+ content of the urine as well as the glucose and cholesterol level of the serum were determined.
# [5] = read-out: K (potassium) diuresis, percentage of the simultaneously measured control values
# [6] = read-out: Na (sodium) diuresis, percentage of the simultaneously measured control values
# [7] = read-out: Water diuresis, percentage of the simultaneously measured control values
# [8] = single oral dose 5 mg/kg, before treatment 216 mmHg
# [9] = single oral dose 100 mg/kg, before treatment 201 mmHg
Structure (SMILES),"response vs control in vivo at 5 mg/kg [1, 5]","response vs control in vivo at 5 mg/kg [1, 6]","response vs control in vivo at 5 mg/kg [1, 7]",Na/K ratio of the urine discharged [1],other results
"NS(=O)(=O)c1cc(C(=O)Nn2c(=S)[nH]c3cc(C(=O)O)ccc32)ccc1Cl.O [Example 1, 1-(4'-chloro-3'-sulfamoylbenzoyl)amino-5-carboxybenzimidazole-2-thione monohydrate]",122%,152%,148%,4.6,"discharged urine volume as well as ion diuresis ([1]; 5 mg/kg oral, compared with Dihydrochlorothiazide and Furosemide): particularly advantageous; Na/K index ([1]; 5 mg/kg oral, result in words): highly preferable; Hypotension 6 hours following treatment, % ([2]; single oral dose 5 mg/kg): 14.3%; Hypotension 6 hours following treatment [2, 8]: 31 mmHg; Hypotension 12 hours following treatment [2, 8]: 45 mmHg; Hypotension 12 hours following treatment, % ([2]; single oral dose 5 mg/kg, monohydrate, 5 mg/kg): 21.1% and 20.1%; Hypotension 24 hours following treatment, % ([2]; single oral dose 5 mg/kg): 13.8%; Hypotension 24 hours following treatment [2, 8]: 30 mmHg; deterioration of the glucose tolerance ([3]; even in a high dose (30 mg/kg)): does not induce any deterioration; effect on the cholesterol level of the serum ([3]; in vivo): no significant effect; effect on the uric acid concentration of the serum ([3]; in vivo): no significant effect"
"NS(=O)(=O)c1cc(C(=O)Nn2c(=O)[nH]c3cc(C(=O)O)ccc32)ccc1Cl [Example 7, 1-(4'-chloro-3'-sulfamoylbenzoyl)-amino-5-carboxybenzimidazolone]",110%,133%,129%,3.7,–
"CSc1nc2cc(C(=O)O)ccc2n1NC(=O)c1ccc(Cl)c(S(N)(=O)=O)c1 [Example 9, 1-(4'-chloro-3'-sulfamoylbenzoyl)-amino-5-carboxy-2-methylthiobenzimidazole]",95%,105%,99%,3.4,–
"Cc1nc2cc(C(=O)O)ccc2n1NC(=O)c1ccc(Cl)c(S(N)(=O)=O)c1 [Example 16, 1-(4'-chloro-3'-sulfamoylbenzoyl)amino-5-carboxy-2-methylbenzimidazole]",109%,117%,111%,3.3,–
"NS(=O)(=O)c1cc(C(=O)Nn2cnc3cc(C(=O)O)ccc32)ccc1Cl [Example 19, 1-(4'-chloro-3'-sulfamoylbenzoyl)amino-5-carboxybenzimidazole]",120%,121%,117%,3.1,–
"NS(=O)(=O)c1cc(C(=O)Nn2cnc3ccccc32)ccc1Cl [Example 22, 1-(4'-chloro-3'-sulfamoylbenzoyl)-aminobenzimidazole]",103%,99%,107%,3.7,–
"Cc1nc2ccccc2n1NC(=O)c1ccc(Cl)c(S(N)(=O)=O)c1 [Example 23, 1-(4'-chloro-3'-sulfamoylbenzoyl)amino-2-methylbenzimidazole]",102%,105%,98%,4.0,–
"NS(=O)(=O)c1ccc2c(c1)[nH]c(=S)n2NC(=O)c1ccc(Cl)c(S(N)(=O)=O)c1 [Example 24, 1-(4'-chloro-3'-sulfamoylbenzoyl)amino-5-sulfamoylbenzimidazole-2-thione]",104%,104%,108%,3.9,–
"NS(=O)(=O)c1cc(C(=O)Nn2cnc3cc(C(F)(F)F)ccc32)ccc1Cl [Example 26, 1-(4'-chloro-3'-sulfamoylbenzoyl)amino-5-trifluoromethylbenzimidazole]",106%,108%,107%,4.0,–
"Cc1nc2cc(C(F)(F)F)ccc2n1NC(=O)c1ccc(Cl)c(S(N)(=O)=O)c1 [Example 27, 1-(4'-chloro-3'-sulfamoylbenzoyl)amino-2-methyl-5-trifluoromethylbenzimidazole]",85%,94%,95%,4.3,–
"NS(=O)(=O)c1cc(C(=O)Nn2c(-c3ccccc3)nc3cc(C(F)(F)F)ccc32)ccc1Cl [Example 29, 1-(4'-chloro-3'-sulfamoylbenzoyl)amino-2-phenyl-5-trifluoromethylbenzimidazole]",105%,101%,97%,2.9,–
"CSc1nc2cc(C(F)(F)F)ccc2n1NC(=O)c1ccc(Cl)c(S(N)(=O)=O)c1 [Example 30, 1-(4'-chloro-3'-sulfamoylbenzoyl)-amino-2-methylthio-5-trifluoromethylbenzimidazole]",108%,106%,114%,3.0,–
"COC(=O)c1ccc2c(c1)nc(C)n2NC(=O)c1ccc(Cl)c(S(N)(=O)=O)c1 [Example 32, 1-(4'-chloro-3'-sulfamoylbenzoyl)amino-5-methoxycarbonyl-2-methylbenzimidazole]",115%,121%,117%,3.2,–
"NS(=O)(=O)c1cc(C(=O)O)c(NCc2ccco2)cc1Cl [Furosemide, reference compound]",105%,106%,107%,2.7,"diuretic effect in the 7 to 24 hours' period ([4]; 7 to 24 hours' period): low; Hypotension 6 hours following treatment, % ([2]; single oral dose 100 mg/kg): 25.3%; Hypotension 6 hours following treatment [2, 9]: 51 mmHg; Hypotension 12 hours following treatment, % ([2]; single oral dose 100 mg/kg): 19.4%; Hypotension 12 hours following treatment [2, 9]: 39 mmHg; Hypotension 24 hours following treatment, % ([2]; single oral dose 100 mg/kg): 1.5%; Hypotension 24 hours following treatment [2, 9]: 3 mmHg"
"NS(=O)(=O)c1cc2c(cc1Cl)NCNS2(=O)=O [Hypothiazide, reference compound]",114%,129%,124%,3.5,diuretic effect in 7 hours' period ([4]; 7 hours' period after administration): low
